Laboratory results published in patent publication US9089568B2, “Method of using compatible solutes containing ectoine and/or hydroxyectoine” (Bitop AG, priority 2005, dated 2015).

Tests used:
[1] = test system: amyloid plaques; test: amyloid plaque formation in mice after oral application; format: in vivo
Excerpt: Unexpectedly, it has now been ascertained from investigations with mice is involving the oral application of compatible solutes ectoine, hydroxyectoine and firoin A that this enabled the formation of amyloid plaques to be reduced. Likewise, through the administration of compatible solutes the occurrence of neuropathologic effects could be reduced. […] It is to be assumed that such a preventive effect but nevertheless the therapeutic effect as well is primarily attributable to the amyloid-inhibiting properties of “compatible solutes”.

[2] = test system: amyloid fibrils; details: in vitro; Arora et al. (2004); cited from earlier work
[3] = test system: chronically inflammable intestinal disease; test: mouse model for Crohn's disease, oral compatible solutes; format: in vivo; details: oral ingestion
Excerpt: Moreover, immunological investigations have shown that the TH-2 TH-1 approach typically adopted for the chronically inflammable intestinal disease may to some extent be circumvented by “compatible solutes”. However, the positive effect of “compatible solutes” is not only limited to an alleviation of the symptoms of chronically inflammable intestinal diseases but in addition is characterized by a pronounced preventive potential. […] It is to be assumed that such a preventive effect but also the therapeutic effect is primarily attributable to the anti-inflammatory properties of “compatible solutes” which on the one hand are aimed at the intestinal epithelial cell but also at the helper T lymphocytes deemed to be the cause of the pathogenesis.

Compound	formation of amyloid plaques [1]	formation of protein deposits, so-called amyloid fibrils [2]	course of chronically inflammable intestinal diseases [3]
NC(=O)[C@H](CO)O[C@@H]1O[C@H](CO)[C@@H](O)[C@H](O)[C@@H]1O [firoin A, mannosylglyceramide]	reduced		
CC1=NCC(O)C(C(=O)O)N1 (centres unmarked) [hydroxyectoine, 2-methyl-4-carboxy-5-hydroxy-3,4,5,6-tetrahydropyrimidine]	reduced		
CC1=NCCC(C(=O)O)N1 (centres unmarked) [ectoine, 2-methyl-4-carboxy-3,4,5,6-tetrahydropyrimidine]	reduced	inhibit	favorably influenced
